Key:
[1] = Body weight in collagenase-induced osteoarthritis rat model; format: in vivo, Wistar rats
Protocol: (§1) In order to understand the anti-inflammatory and antioxidant potential of the nanoparticles of the invention in vivo an experimental animal model of osteoarthritis (OA) was established. The OA lesions were caused by matrix degradation of articular cartilage using enzymatic means, such as collagenase type-II. Following the induction of osteoarthritis, the studied nanoparticles were administered for 8 weeks in which period the morphological and behavioral changes were measured and finally histological analysis of the articular cartilage samples concluded the in vivo study.
(§2) Rats were anesthetized with chloral hydrate. The right knee joints of Group I were injected with normal saline solution and served as a control. Animals from the groups II, III, IV, V, VI, VII were injected with collagenase type II (Clostridium histolyticum). Collagenase (125 collagen digestion unit/mg) was dissolved in saline, and it was injected intra-articularly into the right knee joint twice on days 1 and 4 of the experiment (Al-Saffar, F., H. Ganabadi and S. Fakurazi. Collagenase and sodium iodoacetate-induced experimental osteoarthritis model in Sprague dawley rats. Asian J. Sci. Res. 2: 1-13, 2009). The left knees of all animals were left untreated as a control.
(§3) Changes in body weight and knee diameter were measured on the 1st, 4th,11th,21st,31st,41st,51st, 61st, 71st day before every injection. Knee diameter was measured using a digital caliper. […] A change in body weight is also measured as one of the parameters to assess the course of the disease in the OA animal models.

[2] = system: experimental animal model of osteoarthritis (OA); test: von Frey mechanical allodynia test in osteoarthritis rat model; format: in vivo, Wistar rats; details: for Paw Withdrawal Threshold (%): right paw/(right paw + left paw)*100
Protocol: Healthy adult male Wistar rats (150-200 g) were used for the study, with water and food ad libitum, at a constant temperature of 22°C and controlled lighting (12 h light/12 h dark cycle). […] As far as the dispersion procedure of the injectables is concerned, all the natural compounds were dissolved in saline solution, whereas the studied nanoparticles were mechanically grinded in a mortar and pestle set with saline solution and Tween 20 (2% w/v) and heated at 36 °C before each treatment. There were six treatments administered every 10 days. At the end of the experiment rats were euthanized and both knees were collected for histological analysis. Rats were anesthetized with chloral hydrate. The right knee joints of Group I were injected with normal saline solution and served as a control. Animals from the groups II, III, IV, V, VI, VII were injected with collagenase type II (Clostridium histolyticum). Collagenase (125 collagen digestion unit/mg) was dissolved in saline, and it was injected intra-articularly into the right knee joint twice on days 1 and 4 of the experiment ([…] and S. Fakurazi. Collagenase and sodium iodoacetate-induced experimental osteoarthritis model in Sprague dawley rats. Asian J. Sci. Res. 2: 1-13, 2009). The left knees of all animals were left untreated as a control. For the evaluation of the effectiveness and time of release of the encapsulated compounds, all animals were subjected to a series of behavioral testing in addition to the measurements of body weight and knees diameter change. The experimental protocol of the present study followed the combination of three different behavioral tests, which are von Frey mechanical allodynia test, grid walking and slope walking test. Behavioral tests are performed in three phases, at the beginning before the start of treatment, in the middle of treatment (approximately 35-40 days) and at the end (after the 70th day). Mechanical allodynia was tested by the von Frey method which detects pain threshold as the paw withdrawal response. For the testing, rats were placed into plastic chambers that allow access to the plantar surface of the hind paws. […] In Table 15 below, the nociceptive threshold is defined as: nociceptive threshold (%) = ([…])/((nociceptive; threshold on right paw + nociceptive threshold of left paw))*100 [formula] Table 13: von Frey-paw withdrawal threshold (g)

CCK-8 viability assay = format: cell-based; details: human, primary human chondrocytes; 1 µM, 72h; positive control set to 100; read-out: Mean % relative viability
Protocol: b) The viability of human primary chondrocytes was evaluated following incubation with increasing concentrations of either the pure Naringin (S1) or the nanosystems (Samples S2 and S3) at 2-10-50µM of encapsulated Naringin (1:5 serial dilutions) for 72h (higher concentrations were not used because the nanosystems become insoluble and aggregates sediment on the cell monolayer). For S2 this corresponded to 6,4 µg/ml (for 2 µM of Naringin), 32 µg/ml (for 10 µM of Naringin) and 158 µg/ml (for 50 µM of Naringin) respectively, of total NP concentration. For S3 (CS[PLA[NAR]]) the total NP concentrations to provide the same µM of encapsulated Naringin were 14,4 / 72 / 360 µg/m). As control for the nanosystems, a blank PLA nanoparticle preparation coated with chitosan (S4) was used, at the same µg/ml polymer concentration like the ones used to achieve the 2-10-50µM range for Naringin (the difference being that the blank contains no Naringin). Finally, the blank S4 was used at the 14,4/72/360 µg/ml concentration range (1:5 serial dilutions). Following incubation, the CCK-8 viability kit was used according to manufacturer's instructions (Sigma, 96992-500TESTS-F). Macroscopical and microscopical observation confirmed the proper complete solubility and dispersion of the Nanoparticles. Importantly, healthy cell morphology was observed (spindle-like attached cells with several processes) with concomitant absence of undissolved material.
Table 5. Effect of the natural products and the nanosystems on the relative cell viability of primary human chondrocytes. Measurements obtained using the CCK-8 viability kit. Values normalized to positive control (PC; set to 100; arbitrary unit). Samples' coding: S1= pure Naringin, S2=Naringin encapsulated in PLA nanoparticles [PLA[NAR]], S3=Naringin encapsulated in PLA nanoparticles coated with chitosan CS[PLA[NAR]], and S4=Blank PLA nanoparticles coated with chitosan, CS(PLA[---]].

[3] = system: experimental animal model of osteoarthritis (OA); test: Knee diameter (digital caliper) and gross observations in collagenase-induced osteoarthritis rat model; format: in vivo, Wistar rats; details: for Right knee diameter: collagenase-injected knee; for Left knee diameter: untreated control knee
Protocol: as §1, §2, §3

[4] = system: experimental animal model of osteoarthritis (OA); test: Slope walking test in osteoarthritis rat model; format: in vivo, Wistar rats
Protocol: as §2
Walking on an inclined plane was used for the clinical assessment of motor function in rats after induction of OA. The method consists of placing the animal on an inclined plane and then measuring the time (seconds) needed for the animals to go up the walking tray.

[5] = system: experimental animal model of osteoarthritis (OA); test: Grid-walking test in osteoarthritis rat model; format: in vivo, Wistar rats
Protocol: as §2
In this test the rats were allowed to explore freely for 4 minutes in a wire grid and when one of the limbs fell below the grid surface during free walking, the observer counted the number of foot-fault errors (footslips) (Starkey, M. L., Barritt, A. W., Yip, P. K., Davies, M., Hamers, F. P. T., McMahon, S. B., & Bradbury, E. J. (2005). Assessing behavioural function following a pyramidotomy lesion of the corticospinal tract in adult mice. Experimental Neurology, 195(2), 524-539. doi:10.1016/j.expneurol.2005.0).

RAW264.7 cells = test: MTT cell viability assay; format: cell-based, mouse; details: 24h
Source text: The MTT (3-[4,5-dimethylthiazol-2-yl]-2,5 diphenyl tetrazolium bromide) assay is based on the ability of viable cells with active metabolism to convert the yellow MTT to a purple formazan product, which determines mitochondrial activity. The MTT formazan product agglomerates as an insoluble residuum within the cells, which can be solubilized (in this protocol with DMSO) for homogeneous measurement. Thus, any increase or decrease in the number of viable cells can be detected by measuring the formazan concentration reflected in the optical density (OD) measurement at 540 nm with a reference absorption of 720 nm. This assay is broadly used to measure the in vitro cytotoxic effects of drugs on cell lines or primary cells. For the experimental procedure a standard solution of MTT 1mg/mL in PBS was prepared which after filtration ([…] filter (Millipore, Carrigtwohill, Ireland)) was stored in the dark (4-8 °C) until use. In brief, RAW 264.7 cells were seeded in a 96-well plate at a density of 30.000 cells/ in 100 µL of medium per well. […] This was followed by incubation for 24 h, 48 h and 72 h. At the end of the incubation 10 µL of MTT was added to each well followed by incubation for 4 hours, for the formation of the formazan crystals. The formazan crystals were then dissolved by adding DMSO and stirring lightly for 30 min, after which the absorbance was measured in a plate reader at 540 nm with a reference absorbance of 720 nm. […] Table 4: % cell viability after treatment of RAW264.7 cells with the samples

[6] = 1st injection CO/saline (before treatment)
[7] = 2nd injection CO/saline (before treatment)
[8] = 70 days (end of experimental protocol)

## CC(C)Cc1ccc(C(C)C(=O)O)cc1 (centres unmarked) [IBUPROFEN, ibuprofen]
[1]; [6]
  Body Weight (BW): 234 g
[1]; 1st treatment, 10 mg/kg (S1, ibuprofen i.p.; nanoparticles i.a.), every 10 days
  Body Weight (BW): 245 g
[1]; [7]
  Body Weight (BW): 230 g
[1]; 2nd treatment, 10 mg/kg (S1, ibuprofen i.p.; nanoparticles i.a.)
  Body Weight (BW): 276 g
[1]; 3rd treatment, 10 mg/kg (S1, ibuprofen i.p.; nanoparticles i.a.)
  Body Weight (BW): 296 g
[1]; 4th treatment, 10 mg/kg (S1, ibuprofen i.p.; nanoparticles i.a.)
  Body Weight (BW): 303 g
[1]; 5th treatment, 10 mg/kg (S1, ibuprofen i.p.; nanoparticles i.a.)
  Body Weight (BW): 308 g
[1]; 6th treatment, 10 mg/kg (S1, ibuprofen i.p.; nanoparticles i.a.)
  Body Weight (BW): 313 g
[1]; 11 days (before treatment)
  % Changes in Body Weight (BW): 4,7%
[1]; [8]
  % Changes in Body Weight (BW): 40,2%
[1]; final, 10 mg/kg (S1, ibuprofen i.p.; nanoparticles i.a.)
  Body Weight (BW): 328 g
[2]; 11 days (before treatment)
  von Frey-paw withdrawal threshold: 59,78 g
  Paw Withdrawal Threshold (%): 38,90%
[2]; 70 days (end of experimental protocol), 10 mg/kg (S1, ibuprofen i.p.; nanoparticles i.a.)
  von Frey-paw withdrawal threshold: 83,8 g
[2]; left-control paw
  von Frey-paw withdrawal threshold: 93,9 g
[2]; [8]
  Paw Withdrawal Threshold (%): 45,44%
CCK-8 viability assay
  viability at 72 h, 1 µM: 100%
[3]; 11 days (before treatment)
  % Changes in Left knee diameter: 0,02%
  % Changes in Right knee diameter: 0,91%
[3]; [8]
  % Changes in Left knee diameter: 0,44%
  % Changes in Right knee diameter: 0,37%
[3]; [6]
  Right knee diameter: 0,8128 cm
[3]; 1st treatment, 10 mg/kg (S1, ibuprofen i.p.; nanoparticles i.a.)
  Right knee diameter: 0,8202 cm
[3]; [7]
  Right knee diameter: 0,8192 cm
[3]; 3rd treatment
  Right knee diameter: 0,8172 cm
[3]; 4th treatment
  Right knee diameter: 0,8174 cm
  Left knee diameter: 0,8184 cm
[3]; 5th treatment
  Right knee diameter: 0,817 cm
[3]; 6th treatment
  Right knee diameter: 0,816 cm
[3]; final
  Right knee diameter: 0,8158 cm
  Left knee diameter: 0,8194 cm
[3]; 1st injection CO/saline
  Left knee diameter: 0,8158 cm
[3]; 1st treatment
  Left knee diameter: 0,816 cm
[3]; 2nd injection CO/saline
  Left knee diameter: 0,816 cm
[4]; 11 days (before treatment)
  Slope Walking: 9,8 sec
[4]; [8]
  Slope Walking: 8,9 sec
[5]; 11 days left paw
  Foot fault in grid-walk test (4 min): 1,4
[5]; 11 days right paw
  Foot fault in grid-walk test (4 min): 2,8
[5]; 40 days left paw
  Foot fault in grid-walk test (4 min): 1,8
[5]; 40 days right paw
  Foot fault in grid-walk test (4 min): 1,2
[5]; 70 days left paw
  Foot fault in grid-walk test (4 min): 1
[5]; 70 days right paw
  Foot fault in grid-walk test (4 min): 1

## COc1cc(C2Oc3cc([C@H]4Oc5cc(O)cc(O)c5C(=O)[C@@H]4O)ccc3OC2CO)ccc1O (some centres unmarked) [PC (Silibinin), silibinin]
RAW264.7 cells; 25 µM
  % cell viability: 30%
RAW264.7 cells; 50 µM
  % cell viability: 20%

Source: EP4385495A1, “NANOSYSTEMS FOR THE ENCAPSULATION OF THERAPEUTIC AGENTS” (National Technical University of Athens, priority 2022, dated 2024)
